{"source": "patent US6887882B2", "about": "“Pharmaceutical compositions comprising chelidonine or derivatives thereof” (priority 2002, dated 2005)", "key": {"hKv1.5 channel [1]": {"target": "T1, hKv1.5 channel (Homo sapiens, UniProt P22460)", "T1 construct": "expressed in transfected cells; host or cells: mouse Ltk- cells (pMSVneo vector, G418 selection)", "T1 sequence (P22460 whole entry)": "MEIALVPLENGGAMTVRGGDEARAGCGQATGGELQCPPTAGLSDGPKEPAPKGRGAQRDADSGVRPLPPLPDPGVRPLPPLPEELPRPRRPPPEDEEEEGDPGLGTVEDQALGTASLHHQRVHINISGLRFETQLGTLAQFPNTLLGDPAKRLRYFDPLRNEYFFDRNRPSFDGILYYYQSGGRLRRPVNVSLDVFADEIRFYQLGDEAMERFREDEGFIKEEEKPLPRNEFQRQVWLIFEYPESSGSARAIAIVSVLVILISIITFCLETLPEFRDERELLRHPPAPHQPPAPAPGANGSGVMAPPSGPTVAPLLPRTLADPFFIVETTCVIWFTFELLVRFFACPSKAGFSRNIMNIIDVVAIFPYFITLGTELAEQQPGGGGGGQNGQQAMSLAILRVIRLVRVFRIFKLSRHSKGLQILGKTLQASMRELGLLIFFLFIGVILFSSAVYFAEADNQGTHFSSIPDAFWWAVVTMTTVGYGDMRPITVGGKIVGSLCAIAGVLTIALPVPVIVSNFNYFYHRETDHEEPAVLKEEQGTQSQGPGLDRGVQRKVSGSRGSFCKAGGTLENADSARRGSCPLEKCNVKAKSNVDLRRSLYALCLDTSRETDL", "assay": "Channel state-dependency of hKv1.5 block (tail currents)", "assay_type": "cell-based", "settings": "10 μM; tail currents at -50 mV after +50 mV pulse", "description": "We tested the channel state-dependency of hKv1.5 block by chelidonine (FIG. 3).\nUnder control conditions, the tail currents were rapidly deactivated."}, "mouse": {"system": "mouse", "settings": "intravenously; cited from earlier work"}, "rabbit atrial tissue": {"system": "rabbit atrial tissue", "assay": "Frequency-dependent effects on action potentials of rabbit atrial tissue (APD90)", "assay_type": "cell-based", "settings": "1 μM, of control APD90, n=5", "description": "Action potentials in rabbit atrial tissue were recorded according to the method described in thesis by Kwak, et al. (A newly synthesized benzopyran derivatives, activates the cardiac ATP-sensitive K^+ channel. J Pharmacol Exp Ther 1995, 275: 807-812).\nMale New Zealand white rabbits weighing about 2 kg were stunned with a blow on the head and hearts were rapidly excised and transferred to a dissection bath filled with Tyrode's solution saturated with 97% O2 and 3% CO2 gas mixture and each dissected tissue was mounted horizontally in a narrow channel of a tissue chamber and continuously superfused with the Tyrode's solution at 37° C. The action potentials were elicited by stimulating the cardiac cells with square pulses (1˜5 Hz, 1-ms duration, 20-30% above threshold voltage) by a stimulator. […] Tracings on the oscilloscope screen were photographed on a 35-mm film and also recorded on a physiograph (RS 3400, Gould, Cleveland, Ohio). APD90 was used for the comparison of action potential durations. APD90 represents the action potential duration at 90% repolarization, relative to the action potential duration at maximum 100% depolarization. Images on the oscilloscope screen were captured on Polaroid camera.\nWe tested whether the effect of chelidonine on action potentials of rabbit atrial myocytes are frequency-dependent or not.\nThe relative action potential durations were normalized to the APD90 value in the absence of chelidonine at each frequency. At the stimulus frequency of 1, 2, 3, 4 and 5 Hz, 1 μM chelidonine increased APD90 by 13.0±8.1% (n=5), 14.5±7.9% (n=5), 16.5±2.2% (n=5) 28.2±0.4% (n=5) or 33.0±0.3 1% (n=5) of the control APD90 in the absence of chelidonine at each frequency, respectively."}, "hKv1.5 channel [2]": {"target": "T1, hKv1.5 channel", "assay": "Block of hKv1.5 channel currents expressed in Ltk-cells (whole cell patch clamp)", "assay_type": "cell-based", "description": "Cell line selectively expressing a specific cardiac K^+ channel gene was prepared according to the method described in the thesis (Yang, et al., Inhibition of cardiac potassium currents by the vesnarinone analog OPC-18790: comparison with quinidine and dofetilide. J Pharmacol Exp Ther. 1997, 280: 1170-1175; Kwak, et al., Phosphorylation is required for alteration of Kv1.5 K^+ channel function by the Kvbeta 1.3 subunit. J Biol Chem 1999, 274: 25355-25361).\nFirst, cDNAs for human cardiac K^+ channel genes such as hKv 1.5 and HERG were subcloned into pMSVneo which contain dexamethasone-inducible murine mammary tumor virus promoter controlling transcription of the inserted cDNA and a gene conferring neomycin resistance driven by the SV40 early promotor. The cDNA-containing expression vector was transfected into mouse Ltk-cells with lipofectamine. After 24 hours, the cells selection with […] of G418 was performed for 2 weeks or until discrete foci formed. Individual foci were isolated, maintained in 0.25 μg/ml of G418, and screened by Norhtern analysis and electrophysiological analysis. Transfected cells were cultured in Dulbeco's modified Eagle medium (DMEM) supplemented with 10% horse serum and 0.25 μg/ml of G418, under 5% CO2. Transiently transfected cells were cultured in DMEM media supplemented with only 10% horse serum, differently from stable cell lines.\nCurrents in human atrial myocytes and cell lines were recorded by using the whole cell configuration of the gigaohm-seal patch clamp techniques (Kwak, et al., Phosphorylation is required for alteration of Kv1.5 K^+ channel function by the Kvbeta 1.3 subunit. J Biol Chem 1999, 274: 25355-25361). First, electrical signals were amplified with a patch clamp amplifier (Axon Instruments, Axopatch-1D, Foster, USA). Currents were digitized by a signal converter (Digidata 1200, Axon Instruments) and stored on the hard disk of a computer. The micropipette with a resistance of 1˜2MΩ (Kimax-51, 1.5=14 1.8×10 mm) for current recording, was pulled out by a 2-stage pipette puller (Narishige, PP-83). The intracellular pipette-filling solution for whole cell mode contained 100 mM KCl, 10 mM HEPES, 5 mM K4BAPTA, 5 mM K2ATP and 1 mM MgCl2 (pH 7.2). The extracellular solution contained 130 mM NaCl, 4 mM KCl, 1.8 mM CaCl2, 1 mM MgCl2, 10 mM HEPES and 10 mM glucose (pH 7.35).\nThe current traces were recorded with a depolarizing pulse of +50 mV from a holding potential of −80 mV, followed by a repolarizing pulse of −50 mV in the Ltk-cells. To observe the concentration-dependent block of hKv1.5 channel currents by each compound, steady-state currents taken at the end of the depolarizing pulse of +50 mV were normalized to the control obtained in the absence of each compound\nFIG. 1e is concentration-response curves showing the relative steady-state currents obtained at the end of the depolarizing pulse against the concentration of each compound. Data were fitted with a Hill equation.\nIC50 values (50% inhibitory concentration, μM) of compounds 1˜14 on the hKv1.5 channel currents were determined, and Hill values were calculated from the concentration-response curves of the respective compounds using the Hill equation."}}, "data": [{"smiles": "CN1Cc2c(ccc3c2OCO3)[C@@H]2[C@H]1c1cc3c(cc1C[C@@H]2O)OCO3", "note": "[Compound 1, [5bR-(5bα,6β,12bα)]-5b,6,7,12b,13, 14-hexahydro-13-methyl[1,3]benzodioxolo[5,6c]-1,3-dioxolo[4,5-i]phenanthridin-6-ol]", "values": [{"measurement": "channel state-dependency of hKv1.5 block", "setting": "hKv1.5 channel [1]", "result": "acts as an open channel blocker"}, {"measurement": "toxicity", "setting": "mouse", "result": "34.6 ± 2.44", "unit": "mg/kg"}, {"measurement": "increase of APD90", "setting": "rabbit atrial tissue; stimulus frequency 1 Hz", "result": "13.0±8.1", "unit": "%"}, {"measurement": "increase of APD90", "setting": "rabbit atrial tissue; stimulus frequency 2 Hz", "result": "14.5±7.9", "unit": "%"}, {"measurement": "increase of APD90", "setting": "rabbit atrial tissue; stimulus frequency 3 Hz", "result": "16.5±2.2", "unit": "%"}, {"measurement": "increase of APD90", "setting": "rabbit atrial tissue; stimulus frequency 4 Hz", "result": "28.2±0.4", "unit": "%"}, {"measurement": "Hill value", "setting": "hKv1.5 channel [2]; from concentration-response curves using the Hill equation", "result": 1.07}, {"measurement": "type of hKv1.5 block", "setting": "hKv1.5 channel [2]; hKv1.5 expressed in Ltk-cells, FIGS. 1a to 1e", "result": "predominantly blocked the open ion channels"}, {"measurement": "effect on the hKv1.5 channel currents", "setting": "hKv1.5 channel [2]; hKv1.5 expressed in Ltk-cells, FIGS. 1a to 1d", "result": "concentration-dependent inhibitory effects"}, {"measurement": "IC50", "setting": "hKv1.5 channel [2]; hKv1.5 expressed in Ltk-cells, steady-state current at end of +50 mV depolarizing pulse, holding -80 mV", "result": "11.5 ± 3.1", "unit": "µM"}]}]}
